Measurements: patent US9271978B2 (Zenith Epigenetics Corp., priority 2012, dated 2016)

Legend:
Design in all cases: key: Active: Compounds with an IC50 value less than 30 μM were deemed to be active.; Not Active: Compounds with an IC50 value less than 30 μM were deemed to be active
[1] = target: T1, Brd4 bromodomain 1 (BRD4(1)) (Homo sapiens, UniProt O60885); test: Inhibition of tetra-acetylated histone H4 binding to Brd4 bromodomain 1 (TR-FRET); conditions: tetra-acetylated histone H4 peptide, active = IC50 <30 μM
T1 construct: Illustrative results with the first bromodomain of Brd4; made in house; host or cells: E. coli BL21 (DE3)
Summary of the method: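 IC50 values come from dose-response curves of the 665 nm to 620 nm TR-FRET signal decrease, measured after 2 h at room temperature. Reactions contained 200 nM E. coli-expressed His-tagged bromodomain, 25-50 nM biotinylated tetra-acetylated H4 peptide, Eu-streptavidin plus XL665 anti-His antibody, with 30 mM HEPES pH 7.4, 320 mM KF and 0.2% DMSO.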

c-myc = test: Inhibition of c-myc expression in MV4-11 cells (mRNA, real-time PCR); assay type: cell-based; conditions: Human AML MV4-11 cells, 3 h incubation
Method: MV4-11 cells (2.5×10^4 cells) were plated in 96 well U-bottom plates with test compound or DMSO (0.1%), and incubated for 3 h at 37° C. Cells were then harvested by centrifugation, lysed, and mRNA was isolated using the mRNA catcher plus kit (Invitrogen). Reverse transcription of the mRNA and duplex amplification of the c-myc and cyclophilin cDNAs was performed using the RNA Ultrasense kit (Invitrogen) and a ViiA7 real-time PCR machine (Applied Biosystems). IC50 values were determined from a dose response curve.

[2] = system: human AML MV-4-11 (CRL-9591) cells; test: Inhibition of cell proliferation in MV4-11 cells; assay type: cell-based; conditions: human AML MV-4-11 cells, 72 h; active = IC50 <30 μM
Method: MV4-11 cells: 96-well plates were seeded with 5×10^4 cells per well of exponentially growing human AML MV-4-11 (CRL-9591) cells and immediately treated with two-fold dilutions of test compounds, ranging from 30 μM to 0.2 μM. Triplicate wells were used for each concentration, as well as a media only and three DMSO control wells. The cells and compounds were incubated at 37° C., 5% CO2 for 72 h before adding 20 μL of the CellTiter Aqueous One Solution (Promega) to each well and incubating at 37° C., 5% CO2 for an additional 3-4 h. The absorbance was taken at 490 nm in a spectrophotometer and the percentage of proliferation relative to DMSO-treated cells was calculated after correction from the blank well. IC50 were calculated using the GraphPad Prism software.

hIL-6 mRNA = test: Inhibition of hIL-6 mRNA transcription in U937 cells; assay type: cell-based, human; conditions: LPS stimulation, active = IC50 <30 μM
Method: In this example, hIL-6 mRNA in tissue culture cells was quantitated to measure the transcriptional inhibition of hIL-6 when treated with a compound of the present disclosure.
A human leukemic monocyte lymphoma cell line (U937) was plated (3.2×10^4 cells per well) in a 96-well plate in […] RPMI-1640 containing 10% FBS and penicillin/streptomycin, and differentiated into macrophages for 3 days in 60 ng/mL PMA ([…]) at 37° C. in 5% CO2 prior to the addition of the compound of interest. The cells were pretreated for 1 h with the test compound prior to stimulation with 1 ug/mL lipopolysaccharide from Escherichia coli. The cells were incubated at 37° C. for 3 h before the cells were harvested. At time of harvest, the spent media was removed from the cells and the cells were rinsed in […] PBS. Cell lysis solution (70 μL) was added the cells in each well and incubated for 5-10 min at room temperature, to allow for complete cell lysis and detachment. mRNA was then prepared using the “mRNA Catcher PLUS plate” (Invitrogen), according to the protocol supplied. After the last wash, as much wash buffer as possible was aspirated without allowing the wells to dry. Elution buffer (E3, 70 μL) was then added to each well. mRNA was then eluted by incubating the mRNA Catcher PLUS plate with Elution Buffer for 5 min at 68° C. and then immediately placing the plate on ice.
The eluted mRNA isolated was then used in a one-step quantitative real-time PCR reaction, using components of the Ultra Sense Kit together with Applied Biosystems primer-probe mixes. Real-time PCR data was analyzed, normalizing the Ct values for hIL-6 to an internal control, prior to determining the fold induction of each unknown sample, relative to the control.

| Structure (SMILES) | FRET activity (IC50 <30 μM) BRD4(1) [1] | c-myc activity (IC50 <30 μM) (c-myc) | Cell Proliferation activity (IC50 <30 μM) [2] | IL-6 activity (IC50 <30 μM) (hIL-6 mRNA) |
| --- | --- | --- | --- | --- |
| Cc1noc(C)c1-c1cc(N)c(=O)n(Cc2ccc3c(c2)OCO3)c1 [Example 256, 3-amino-1-(benzo[d][1,3]dioxol-5-ylmethyl)-5-(3,5-dimethylisoxazol-4-yl)pyridin-2(1H)-one] | Active | Active | Active | Active |
| Cc1noc(C)c1-c1cc(N)c(=O)n(Cc2c[nH]c3ccccc23)c1 [Example 270, 1-((1H-indol-3-yl)methyl)-3-amino-5-(3,5-dimethylisoxazol-4-yl)pyridin-2(1H)-one] | Active | Active | Active | Active |
| Cc1noc(C)c1-c1cc(N)c(=O)n(Cc2ccc(N3CCOCC3)cc2)c1 [Example 238, 3-Amino-5-(3,5-dimethylisoxazol-4-yl)-1-(4-morpholinobenzyl)pyridin-2(1H)-one] | Active | Active | Active | Active |
| Cc1noc(C)c1-c1cc(N)c(=O)n(Cc2ccc(C#N)s2)c1 [Example 264, 5-((3-amino-5-(3,5-dimethylisoxazol-4-yl)-2-oxopyridin-1(2H)-yl)methyl)thiophene-2-carbonitrile] | Active | Active | Active | Active |
| Cc1cc(Cn2cc(-c3c(C)noc3C)cc(N)c2=O)c(C)s1 [Example 251, 3-amino-5-(3,5-dimethylisoxazol-4-yl)-1-((2,5-dimethylthiophen-3-yl)methyl)pyridin-2(1H)-one] | Active | Active | Active | Active |

Results, then the compound that gave them:

| FRET activity (IC50 <30 μM) BRD4(1) [1] | c-myc activity (IC50 <30 μM) (c-myc) | Cell Proliferation activity (IC50 <30 μM) [2] | IL-6 activity (IC50 <30 μM) (hIL-6 mRNA) | Structure (SMILES) |
| --- | --- | --- | --- | --- |
| Active | Active | Active | Active | COc1cncc(Nc2cc(-c3c(C)noc3C)cn(Cc3ccccc3)c2=O)c1 [Example 231] |
| Active | Active | Active | Active | Cc1noc(C)c1-c1cc(N)c(=O)n(Cc2ccc(C(C)C)cc2)c1 [Example 242, 3-Amino-5-(3,5-dimethylisoxazol-4-yl)-1-(4-isopropylbenzyl)pyridin-2(1H)-one] |
| Active | Not Active | Not Active | Active | Cc1noc(C)c1-c1cc(Nc2ccccc2)c(=O)n(Cc2ccc(Cl)cc2)c1 [Example 188, 1-(4-chlorobenzyl)-5-(3,5-dimethylisoxazol-4-yl)-3-(phenylamino)pyridin-2(1H)-one] |
| Active | Not Active | Not Active | Not Active | COCc1noc(C)c1-c1ccc(=O)n(Cc2ccccc2)c1 [Example 187, 1-benzyl-5-(3-(methoxymethyl)-5-methylisoxazol-4-yl)pyridin-2(1H)-one] |
